Assays:
[1] = tested on: Rtkn-GFP mouse embryonic stem (mES) reporter cell line; assay: ToxTracker assay, Rtkn-GFP DNA damage reporter; type: cell-based
Procedure: (§1) This methodology uses a two step-approach.
(§2) Metabolic was evaluated by addition of S9 liver extract. […] Only GFP expression in intact single cells is determined.

[2] = tested on: biomarkers Bscl2-GFP and Rtkn-GFP in mES reporter cell lines; assay: ToxTracker assay, overall genotoxicity conclusion; type: cell-based, mouse; settings: Bscl2-GFP and Rtkn-GFP at 10, 25 and 50% cytotoxicity, absence and presence of rat S9
Procedure: as §1, §2

[3] = tested on: Bscl2-GFP mouse embryonic stem (mES) reporter cell line; assay: ToxTracker assay, Bscl2-GFP DNA damage reporter; type: cell-based
Procedure: as §1, §2

[4] = with S9 rat liver extract, at 10% cytotoxicity, 3 h exposure, 24 h recovery
[5] = with S9 rat liver extract, at 25% cytotoxicity, 3 h exposure, 24 h recovery
[6] = with S9 rat liver extract, at 50% cytotoxicity, 3 h exposure, 24 h recovery
[7] = without S9 rat liver extract, at 10% cytotoxicity, 24 h exposure
[8] = without S9 rat liver extract, at 25% cytotoxicity, 24 h exposure
[9] = without S9 rat liver extract, at 50% cytotoxicity, 24 h exposure

C=CC(=O)OCCOC(=O)NCCCCCCn1c(=O)n(CCCCCCNC(=O)OCCOC(=O)C=C)c(=O)n(CCCCCCNC(=O)OC(C)CN2CC2C)c1=O (stereo not shown) [Compound 1]
Rtkn GFP reporter induction level [1, 4]: 1.0 fold | Rtkn GFP reporter induction level [1, 5]: 1.0 fold | Rtkn GFP reporter induction level [1, 6]: 1.0 fold | Rtkn GFP reporter induction level [1, 7]: 1.0 fold | Rtkn GFP reporter induction level [1, 8]: 1.0 fold | Rtkn GFP reporter induction level [1, 9]: 1.0 fold | Genotoxicity conclusion (ToxTracker) [2]: non-genotoxic | Bscl 2 GFP reporter induction level [3, 4]: 1.2 fold | Bscl 2 GFP reporter induction level [3, 5]: 1.2 fold | Bscl 2 GFP reporter induction level [3, 6]: 1.2 fold | Bscl 2 GFP reporter induction level [3, 7]: 1.0 fold | Bscl 2 GFP reporter induction level [3, 8]: 1.2 fold | Bscl 2 GFP reporter induction level [3, 9]: 1.3 fold

Reference: patent US12637423B2, “Aziridinyl functional compound” (priority 2020, dated 2026)
